# Laboratory results as given in patent US20240261398A1 (priority 2018, published 2024).
# Columns and labels:
# [1] = tested on: A/California/07/2009 virus (H1N1; CA07); parameters: species or system BALB/c mice; settings: mouse, in vivo; hydrate
# [2] = tested on: A/California/07/2009 virus (H1N1; CA07); parameters: species or system BALB/c mice; settings: mouse, in vivo; hydrate; remark: listed apart in the source
# influenza virus = assay type: in vivo, mice; settings: nasal immunization with vaccine + compound, 100 μg/dose (saponin 10 μg/dose), Day 0, 14, 28
smiles,measurement,setting,value
C[C@@H]1O[C@@H](OC[C@H]2O[C@@H](Oc3c(-c4ccc(O)c(O)c4)oc4cc(O)cc(O)c4c3=O)[C@H](O)[C@@H](O)[C@@H]2O)[C@H](O)[C@H](O)[C@H]1O [Rutin hydrate],"Antibody titers in primary screening, Vaccine + compound",[1],1280.00
same,"Antibody titers in secondary screening, Vaccine + compound",[2],720
same,Antibody titers (IgG),influenza virus,280
